Assay: Intrinsic dissolution of itraconazole mixed phase co-crystals
Assay type: physicochemical
Settings: 3% sodium lauryl sulfate 20% isopropanol:0.1 N HCl (1:1)
Source text: FIG. 5 is a graph showing the intrinsic dissolution rate of itraconazole mixed phase co-crystals in a 3% sodium lauryl sulfate 20% isopropanol:0.1 N HCl (1:1) media.

Substance: Itraconazole [Control (Intact API)]
- Intrinsic Dissolution Rate: 11.1 mcg/min/cm^2

Reference: patent US9682043B2, “Method of preparation of mixed phase co-crystals with active agents” (MedCrystalForms, LLC, priority 2003, dated 2017)
